# Test results as given in patent publication US20140371254A1, “NOVEL TREATMENT OF GEFITINIB-RESISTANT NON-SMALL-CELL LUNG CANCER” (Macau University of Science and Technology, priority 2013, published 2014).
# Key:
# [1] = test system: H2228 (EML4-ALK fusion gene); conditions: method not stated; cited from earlier work
# [2] = test system: H1975 (EGFR^L858R+T790M) cells; test: Apoptosis by Annexin V/PI staining with flow cytometry; assay type: cell-based, human
# Method: Annexin V/PI staining is used to detect early and late stages of apoptosis. According to the manufacturer's protocol (BD Pharmingen), 5×10^5 cells of the treated and control groups were harvested, washed, and double-stained with Annexin V/PI for 15 min at room temperature in dark. Then apoptotic cells were quantitatively counted by a flow cytometer (BD FACSAria III). Early stage of apoptotic cells were stained with Annexin V-positive and PI-negative, while the late stage of apoptotic cells were stained with Annexin V-positive and PI-positive.
# Example 6 further studies if the sanguinarine-induced apoptosis in H1975 (EGFR^L858R+T790M) is in caspases-dependent manner H1975 cells were treated with 1.25 μM sanguinarine and 1.25 μM sanguinarine together with 50 μM pan-caspase inhibitor for 24 hrs.
# JNK, p38 = test: Western blot of phosphorylation of JNK and p38; assay type: cell-based, human; conditions: 5 μM NAC and 1.25 μM sanguinarine
# Method: (§1) Cells were lysed in RIPA lysis buffer with protease and phosphatase inhibitors added for total whole cell protein extraction. The concentration of the total protein extract was determined by Bio-Rad DCTM protein assay kit (Bio-Rad). Then samples were loaded and separated onto a 10% SDS-PAGE gel and then the separated proteins were transferred to a Nitrocellulose (NC) membrane. Membranes were blocked with 5% milk without fat in TBST for 1 hour at room temperature. Primary antibodies (1:1000 dilutions for Cell Signaling antibodies; 1:500 dilutions for Santa Cruz antibodies) were added and incubated overnight at 4° C. On the other day, membrane was washed by TBST for three times (5 mins/wash), while secondary fluorescent antibody (1:10000 dilutions) was added to membrane and incubated at room temperature for 1 hr. Actin was used as loading control and for normalization. The signal intensity of the membranes was detected by Odessy (LI-COR).
# ROS intensity was increased with the increase of sanguinarine treatment time. Sanguinarine-induced apoptosis in H1975 cells, in which the cells were pre-treated with 5 μM NAC and a ROS generation inhibitor, was also studied. […] Also, P-EGFR 1045 as shown in FIG. 6 is a tyrosine(Y) phosphorylation site of EGFR at amino acid position 1045 (Y1045) and phosphorylation of this site will lead to activation of EGFR degradation after cbl docking to this site
# EGFR = test: Western blot analysis of the protein level of EGFR; assay type: cell-based, human; conditions: 5 μM NAC and 1.25 μM sanguinarine
# Method: as §1
# In Example 3, the protein level of EGFR after sanguinarine treatment with difference dosage and duration was analyzed.
compound,measurement,setting,value
COc1cc2ncnc(Nc3ccc(F)c(Cl)c3)c2cc1OCCCN1CCOCC1 [Gefitinib],Gefitinib Sensitivity,[1],Resistant
CC(=O)N[C@@H](CS)C(=O)O [NAC],apoptosis induced by sanguinarine after NAC pre-treatment,"[2]; H1975, pre-treated with 5 μM NAC, sanguinarine",completely blocked
same,"phosphorylation of JNK, p38 induced by sanguinarine","JNK, p38",block
same,EGFR degradation induced by sanguinarine,EGFR,block
C[n+]1cc2c3c(ccc2c2ccc4cc5c(cc4c21)OCO5)OCO3 [sanguinarine],more cell debris than control,"[2]; H1975, 1.25 μM, 24 hrs",20%
same,increase in early stage of apoptosis compared with the control group,"[2]; H1975, 1.25 μM, 24 hrs, early stage (Q3)",7.2 fold
